O=C(O)c1ccc(C(=O)O)o1
solubility (mole fraction)
Conditions	in 1,2-dimethoxyethane	in 1,4-dioxane	in THF	in diglyme
293.15 K	–	–	0.00772	–
298.15 K	–	–	0.00826	–
303.15 K	0.00344	0.00421	0.00884	0.00653
308.15 K	0.00372	0.00458	0.00939	0.00704
313.15 K	0.0039	0.00481	0.00998	0.00735
318.15 K	0.0041	0.00521	0.0108	0.00767
323.15 K	0.00432	0.00573	0.0116	0.00801
328.15 K	0.00458	0.00631	0.0122	0.00842
333.15 K	0.00487	0.00739	0.0128	0.00887
338.15 K	0.00528	0.00827	–	0.00937
343.15 K	0.00558	0.00886	–	0.00965
348.15 K	–	–	–	0.0103
353.15 K	–	–	–	0.0105

— BigSolDB 2.1
